Series [1] is described as follows: Dog pharmacokinetic study. The following applies: male Beagle. The format is in vivo, male beagle dogs. On the procedure: 2. […] Food was returned 4 hours after dosing. […] 4. […] Food was returned 4 hours after dosing. […] Supplemental Results:SMYD2 compound characterization […] The […] nM (Figure S8A).
Series [2] can be described thus: in vitro. The following applies: male, CD-1, mouse, plasma, pH 7.4.
Description: Caco-2 permeability. Caco-2 cells (obtained from the ATCC), between passage numbers 40 to 60, were seeded onto Millipore
Multiscreen plates at 1x10^5 cells/cm2 in Dulbecco's Modified Eagle Medium. Media was changed every two or three days. On
Day 20, the permeability study was performed using Hanks Balanced Salt Solution (HBSS) pH 7.4 buffer with 25 mM HEPES and
Incubations were carried out in an atmosphere of 5% CO2 with a relative humidity of
The monolayers were prepared by rinsing both basolateral and apical surfaces twice with HBSS at 37°C. Cells were
then incubated with HBSS in both apical and basolateral compartments for 40 min to stabilize physiological parameters. HBSS […]
removed and apical and basolateral samples diluted for analysis by LC-MS/MS. Permeability was assessed in duplicate, on two
different occasions. […] Compounds were quantified by LC-MS/MS analysis using a 5 point calibration curve. The starting concentration (C0) was determined from the dosing solution and
experimental recovery calculated from C0 and both apical and basolateral compartment concentrations. […]
(Papp) for each compound was calculated as: (dQ/dt)/(C0xA), where dQ/dt is the rate of permeation of the drug across the cells, C0 […]
Plasma protein binding. Plasma protein binding was assessed by equilibrium dialysis utilizing the HT-dialysis cell format with a […]
Series [3] is described as follows: in vitro. It is filed as in vitro ADME, CD-1 mice. The following applies: male, CD-1, mouse, microsomes, pH 7.4.
The subject of series [4] is KYSE-150. Put plainly: Cell proliferation, KYSE-150. The format is cell-based. As to conditions: Homo sapiens, read-out: Cellular Proliferation IC50. The method, then: Cell lines used in these experiments were obtained from the following sources and were cultured according to conditions specified by the respective cell banks. […] The cell lines listed above were tested for mycoplasma and were negative. Cells were authenticated by STR method or vendor protocols. All 313 cell lines in the CRIPSR pooled screen were purchased from commercial vendors and were STR authenticated and mycoplasma negative. A broad panel of cancer cell lines was screened in the Eurofins Oncopanel. All cells in this panel were mycoplasma negative and STR verified.
Thus, 5 compounds representing 4 distinct pharmacophore series of SMYD2 inhibitors are now available for testing the dependence of cancer lines on SMYD2 activity. […] In stark contrast, however, no correlation is seen between the potency for BTF3 methylation inhibition and anti-proliferative activity among these compounds (Fig 3B).

The target in series [5] is T1, SMYD3 (Homo sapiens, UniProt Q9H7B4).
T1 sequence (Q9H7B4 1-428): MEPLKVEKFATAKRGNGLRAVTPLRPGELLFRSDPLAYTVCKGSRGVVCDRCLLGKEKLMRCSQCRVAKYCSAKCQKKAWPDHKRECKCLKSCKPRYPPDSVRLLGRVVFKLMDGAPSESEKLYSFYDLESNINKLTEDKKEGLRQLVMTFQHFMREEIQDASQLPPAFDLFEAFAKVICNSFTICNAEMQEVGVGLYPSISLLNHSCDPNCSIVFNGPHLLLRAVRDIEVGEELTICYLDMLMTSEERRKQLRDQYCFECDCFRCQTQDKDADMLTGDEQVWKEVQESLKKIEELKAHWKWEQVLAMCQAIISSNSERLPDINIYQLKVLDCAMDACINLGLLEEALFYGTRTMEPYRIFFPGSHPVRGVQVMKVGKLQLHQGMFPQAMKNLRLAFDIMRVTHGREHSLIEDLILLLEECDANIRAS
Nature of the series: SMYD3 biochemical methylation assay (3H-SAM, GST-MAP3K2/MEKK2 substrate). As to conditions: tested in duplicate; read-out: selectivity panel result, SMYD3 (off-target). Details: Protein purification of both isoforms of full length SMYD3 was performed as previously reported; made in house. On the procedure:
SMYD3 assays were performed as previously described using N-terminally GST-tagged MAP3K2 protein substrate. […] Reactions were conducted at room temperature with enzyme and inhibitor incubated for 30 minutes before initiating the reaction with substrates. Dose-response curves were tested in duplicate in each experiment. […] Quenched reactions were transferred to a streptavidin-coated flashplate (Perkin Elmer) for capture of the biotinylated peptide. After 2 h incubation at room temperature, the flashplate was washed once with 0.1% Tween-20 and read on a Perkin Elmer Topcount NXT plate reader. Substrate apparent KM values were determined by measuring the initial velocities (v0) in duplicate while varying one substrate at fixed concentration of the second substrate.
Mechanism of inhibition was determined by measuring the inhibitor IC50 values while varying the concentration of one substrate at a fixed concentration of the second substrate equal to its KM value.

Where a name gives a salt, the structure may show the parent alone. A value given as a limit tells only on which side of the number the result lay.

For orientation: MRT means a mean duration of stay, worked out from the concentration-time curve. In general, bioavailability refers to the share of a dose that reaches the circulation, judged against a reference dose that is usually intravenous. Low values mean little systemic uptake, high ones much systemic uptake. The term half-life denotes how long it takes for the measured level to halve. A lower half-life goes with fast loss. The Tmax is the time at which the peak concentration occurs. As a reminder, the fraction unbound is the share of the substance not bound to proteins or other matrix. High values mean much free substance, low ones little free substance. One may read the microsomal CLint as a measure of how fast metabolising enzymes remove a compound, apart from limits set by blood flow. Low values mean greater metabolic stability, high ones faster metabolism. In the case of `NC1CCC(S(=O)(=O)N2C3CCC2CC(NC(=O)c2cc(C4CC4)on2)C3)CC1` [EPZ028862, N-((1R,3R,5S)-8-((1r,4R)-4-aminocyclohexylsulfonyl)-8-aza-bicyclo[3.2.1]octan-3-yl)-5-cyclopropylisoxazole-3-carboxamide hydrochloride], in series [1] (plasma, IV 1 mg/kg, PO 5 mg/kg), the MRT amounted to 7 ± 0.2 h, the bioavailability was 70 ± 6% and the half-life is 5.4 ± 0.1 h. Further, the clearance in series [1] (plasma, IV 1 mg/kg, read-out: CLp) came out at 13.9 ± 1.2 mL/min/kg. Further, in series [1] (plasma, IV 1 mg/kg, read-out: Vss), the Vd was 5.8 ± 0.6 L/kg. The Tmax in series [1] (plasma, PO 5 mg/kg) amounted to 1.5 ± 0.9 h. Further, in series [1] (urine and plasma, IV 1 mg/kg), the CL renal worked out at 1.97 ± 0.38 mL/min/kg. Further, the free fraction (fraction unbound) at 16 h, 1 µM in series [2] stood at 0.51. In series [3], the microsomal CLint at 1 µM was found to be 3.3 µL/min/mg.
On to `O=C(NC1CN(Cc2cnn(Cc3ccc(Cl)cc3)c2)C1)c1cn(C2CC2)nn1` [EPZ033294], for which the IC50 in series [4] was > 40 µM; in series [5], > 10 µM.

These data come from PMC5983452 (PLoS ONE, 2018).
